In US4243671A, “Inhibition of thromboxane synthetase formation and arachidonic acid-induced platelet aggregation and bronchoconstriction” (E. R. Squibb & Sons, Inc., priority 1979, dated 1981):

How the values were obtained:
thromboxane synthetase [1] = settings: cited from earlier work
Thromboxane synthetase [2] = target: T1, Thromboxane synthetase (Homo sapiens, UniProt P24557); assay: Inhibition of thromboxane synthetase (platelet membrane preparation, 14C-arachidonic acid to thromboxane-B2); format: biochemical
T1 construct: from tissue; host or cells: blood platelets from fresh platelet-rich plasma (PRP), lysed membrane suspension
T1 sequence (P24557 1-533): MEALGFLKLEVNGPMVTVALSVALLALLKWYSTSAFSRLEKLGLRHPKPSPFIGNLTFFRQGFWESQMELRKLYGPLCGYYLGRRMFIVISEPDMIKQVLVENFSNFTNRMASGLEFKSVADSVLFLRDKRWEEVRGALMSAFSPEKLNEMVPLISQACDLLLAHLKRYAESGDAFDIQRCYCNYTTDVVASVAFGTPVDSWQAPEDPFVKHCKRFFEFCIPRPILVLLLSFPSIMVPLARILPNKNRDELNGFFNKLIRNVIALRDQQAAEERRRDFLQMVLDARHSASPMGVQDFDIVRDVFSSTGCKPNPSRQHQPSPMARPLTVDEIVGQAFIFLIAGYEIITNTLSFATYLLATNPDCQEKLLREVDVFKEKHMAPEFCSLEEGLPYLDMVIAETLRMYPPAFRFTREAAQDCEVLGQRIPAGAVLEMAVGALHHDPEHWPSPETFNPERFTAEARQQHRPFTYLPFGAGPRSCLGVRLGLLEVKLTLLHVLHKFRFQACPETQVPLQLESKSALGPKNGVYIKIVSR
Protocol: Thromboxane synthetase is prepared from fresh PRP according to the procedure of Nijkamp et al, supra. Briefly, a platelet pellet is washed in physiological saline, and the platelets lysed by a combination of freeze-thaw cycles and homogenizations. This platelet membrane suspension is divided into small aliquots and stored at -70° C. until used. Thromboxane synthetase activity is determined by incubating the platelet preparation with ^14 C-arachidonic acid in a reaction mixture containing epinephrine, reduced glutathione, and Tris-HCl buffer, pH 7.5. Thromboxane synthetase activity is determined in the presence of the test compound dissolved in methanol, or of the methanol control. The reaction is carried out for 3-5 minutes at 37° C. and stopped by the addition of 2N HCl. In some instances, aliquots of the reaction mixtures are spotted directly on Quantum thin layer plates for thin layer chromatography of reaction mixture components. In other experiments, the lipids in the reaction mixture are extracted into ethyl acetate. After the ethyl acetate is taken to dryness, the lipid residue is dissolved in ethanol and aliquots spotted on the thin layer plates. In either instance, the plates are developed using chloroform:methanol:acetic acid (90:5:5) as solvent system. […] The radioactivity that migrates in the area of thromboxane-B2 is then determined by liquid scintillation spectrometry.

[3] = test system: histamine-induced bronchoconstriction; assay: Specificity test: histamine-induced bronchoconstriction in the anesthetized guinea pig; format: in vivo; settings: 1.0 mg/kg i.v.; histamine 5.0 μg/kg i.v.
Protocol: (§1) Male guinea pigs weighing 480-520 g are anesthetized with urethane (1.5 g/kg, i.p.). Spontaneous respiration is arrested with succinylchloline chloride (1.5 mg/kg, i.p.). The guinea pigs are artificially ventilated with a Palmer respiration pump through a tracheal cannula at a rate of 72 strokes/min and a stroke volume of 3 ml.
Pulmonary resistance and dynamic compliance are determined by the method described by Amdur and Mead, "Mechanics of Respiration in Unanesthetized Guinea Pigs", Amer. J. Physiol. 192, 364-368, as modified by Giles et al. (1973), "The Bronchodilator and Cardiac Stimulant Effects of Th 1165A, Salbutamol, and Isoproterenol", J. Pharmacol. Exp. Ther. 186, 472-481. Respiratory flow is measured with a Fleisch pneumotachograph (No. 000) and a Validyne (MP 45) differential pressure transducer. Transpulmonary pressure is determined by monitoring the difference between pressure in the external end of a tracheal cannula and the pressure in the pleural cavity by means of a Validyne MP 45 differential pressure transducer. […] The computer output of flow, pressure, volume, resistance and dynamic compliance are recorded on a Brush 260 recorder. Blood pressure is measured from a carotid artery with a Statham P23Db transducer and heart rate is derived from the pulse pressure. Both blood pressure and heart rate are recorded with the Buxco pulmonary mechanics computer. […]

[4] = test system: arachidonic acid induced platelet aggregation; assay: Inhibition of arachidonic acid induced platelet aggregation in platelet-rich plasma; format: cell-based; settings: arachidonic acid 800 μM, human PRP
Protocol: Venous blood is collected from the antecubital vein of human volunteers who are drug free for at least one week. The blood is collected by gravity into plastic transfer bags containing 0.38% sodium citrate as the anticoagulant. Platelet-rich plasma (PRP) is prepared by centrifuging the citrated blood at 200×g for 10 min at 25° C. Platelet-poor plasma (PPP) is obtained by centrifuging the PRP at 2500×g for 30 min at 25° C. Platelet aggregation is studied photometrically (Boron, Nature 194:927-929,1962) using a Chronolog aggregometer connected to a linear recorder. The test compound is dissolved in methanol and preincubated with PRP for 2.5 minutes at 37° C. Arachidonic acid (800 μM) dissolved in 0.1 M Tris-HCl buffer, pH 8.5, is then added and the optical transmission recorded for at least 3 minutes. The rate of increase in optical transmission, which is a measure of the initial velocity of aggregation, is measured by determining the slope of the steepest part of the curve.

[5] = test system: arachidonic acid-induced bronchoconstriction; assay: Inhibition of arachidonic acid-induced bronchoconstriction in the anesthetized guinea pig; format: in vivo
Protocol: as §1
Pulmonary resistance and dynamic compliance are determined by the method described by Amdur and Mead, "Mechanics of Respiration in Unanesthetized Guinea Pigs", Amer. J. Physiol. 192, 364-368, as modified by Giles et al. (1973), "The Bronchodilator and Cardiac Stimulant Effects of Th 1165A, Salbutamol, and Isoproterenol", J. Pharmacol. Exp. Ther. 186, 472-481. Respiratory flow is measured with a Fleisch pneumotachograph (No. 000) and a Validyne (MP 45) differential pressure transducer. Transpulmonary pressure is determined by monitoring the difference between pressure in the external end of a tracheal cannula and the pressure in the pleural cavity by means of a Validyne MP 45 differential pressure transducer. The flow and pressure signals are fed into an on-line analog Pulmonary Mechanics Computer (Buxco Electronics, Inc.) which provides calculation of pulmonary resistance and dynamic compliance. The computer output of flow, pressure, volume, resistance and dynamic compliance are recorded on a Brush 260 recorder. Blood pressure is measured from a carotid artery with a Statham P23Db transducer and heart rate is derived from the pulse pressure. Both blood pressure and heart rate are recorded with the Buxco pulmonary mechanics computer. All parameters are digitalized by a Data Logger, Model DL-12 Buxco electronics and recorded on a Texas Instrument silent 700 ASR printer.
Arachidonic acid (AA) (0.25 mg/kg i.v.) is administered to groups of 4-5 guinea pigs 15 minutes before and 3 and 10 minutes after the administration of the test compound (0.1, 0.3 and 1.0 mg/kg i.v.). The administration of AA causes substantial increases in pulmonary resistance (R) and decrease in dynamic compliance (C) of 70% and 50% respectively. […] The inhibitory effect of the test compound lasts for less than 10 minutes.

Row | Structure (SMILES) | inhibition of thromboxane synthetase (literature) (thromboxane synthetase [1]) | inhibition at 1000 µM (Thromboxane synthetase [2]; at 1000 μM) | IC50 (Thromboxane synthetase [2]; read-out: I50 thromboxane synthetase) | effect on histamine-induced increases in R and decreases in C [3] | IC50 ([4]; read-out: I50 (concentration to achieve 50% inhibition) of platelet aggregation) | inhibition at 1000 µM ([4]; screening concentration 1 mM, read-out: effectiveness in inhibiting platelet aggregation) | duration of hypertension ([5]; 0.1, 0.3 and 1.0 mg/kg i.v.) | effect of compound alone on R, C or heart rate ([5]; 0.1, 0.3 and 1.0 mg/kg i.v.) | effect on blood pressure ([5]; 0.1, 0.3 and 1.0 mg/kg i.v.) | duration of inhibitory effect on AA-induced changes ([5]; 0.1-1.0 mg/kg i.v.) | effect on AA-induced changes in pulmonary resistance (R) and dynamic compliance (C) ([5]; 0.1-1.0 mg/kg i.v. given before AA 0.25 mg/kg i.v.)
1 | c1c[nH]cn1 [imidazole] | specific inhibitor | – | – | – | – | – | – | – | – | – | –
2 | C(=Cc1ccccc1)Cn1ccnc1.Cl [test compound, 1-(3-phenyl-2-propenyl)-1H-imidazole, hydrochloride (1:1)] | – | 83% | 30 µM | not altered | 30 µM | 100% | up to 30 minutes | does not significantly alter | profound hypertension of long duration | less than 10 minutes | significant dose dependent decrease
